# Results: patent publication US10829490B2, “Substituted dihydropyrazino[1 ′,2′:1,5]pyrrolo[2,3-d]pyrimidine-based antiproliferative agents” (G1 Therapeutics, Inc., priority 2016, dated 2020)
# What was measured:
# Format in all cases: biochemical
# CDK7/CycH/MAT1 = CDK7/CycH/MAT1 (Homo sapiens (Human), UniProt P50613); test: CDK7/CycH/MAT1 kinase inhibition (Biological Table 2)
# CDK2/CycE = CDK2/CycE (Homo sapiens (Human), UniProt P24941); test: CDK2/CycE kinase inhibition (Biological Table 1)
# CDK5/p25 = CDK5/p25 (Homo sapiens (Human), UniProt Q00535); test: CDK5/p25 kinase inhibition (Biological Table 2)
# Sequence of CDK5/p25 (Q00535 whole entry): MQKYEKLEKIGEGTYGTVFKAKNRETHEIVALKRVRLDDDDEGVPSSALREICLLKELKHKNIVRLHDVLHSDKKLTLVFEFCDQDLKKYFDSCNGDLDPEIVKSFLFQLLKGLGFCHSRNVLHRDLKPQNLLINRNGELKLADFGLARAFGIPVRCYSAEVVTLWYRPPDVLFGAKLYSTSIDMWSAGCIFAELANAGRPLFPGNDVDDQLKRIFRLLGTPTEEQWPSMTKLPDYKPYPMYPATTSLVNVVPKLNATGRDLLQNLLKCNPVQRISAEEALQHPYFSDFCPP
# CDK4/CycD = CDK4/CycD (Homo sapiens (Human), UniProt P11802); test: CDK4/CycD kinase inhibition (Biological Table 1)
# Sequence of CDK4/CycD (P11802 whole entry): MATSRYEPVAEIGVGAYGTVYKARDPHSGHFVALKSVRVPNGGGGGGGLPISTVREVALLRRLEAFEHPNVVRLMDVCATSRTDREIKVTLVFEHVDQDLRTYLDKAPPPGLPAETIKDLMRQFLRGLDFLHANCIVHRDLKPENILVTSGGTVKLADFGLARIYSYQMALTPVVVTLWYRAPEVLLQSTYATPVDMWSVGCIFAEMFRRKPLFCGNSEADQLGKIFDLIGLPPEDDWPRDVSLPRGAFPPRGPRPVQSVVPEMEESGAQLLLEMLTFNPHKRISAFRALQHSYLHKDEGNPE
# Sequence of CDK4/CycD (P24385 whole entry partner): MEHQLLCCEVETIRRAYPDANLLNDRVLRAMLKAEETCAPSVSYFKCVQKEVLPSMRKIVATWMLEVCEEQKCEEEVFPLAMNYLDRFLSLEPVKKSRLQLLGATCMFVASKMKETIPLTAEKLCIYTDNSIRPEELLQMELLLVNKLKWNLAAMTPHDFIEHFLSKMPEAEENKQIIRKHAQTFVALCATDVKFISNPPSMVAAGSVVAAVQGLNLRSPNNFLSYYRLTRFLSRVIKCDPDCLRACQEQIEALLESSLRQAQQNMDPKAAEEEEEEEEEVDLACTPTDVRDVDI
# CDK9/CycT = CDK9/CycT (Homo sapiens (Human), UniProt P50750); test: CDK9/CycT kinase inhibition (Biological Table 2)
# Sequence of CDK9/CycT (P50750 whole entry): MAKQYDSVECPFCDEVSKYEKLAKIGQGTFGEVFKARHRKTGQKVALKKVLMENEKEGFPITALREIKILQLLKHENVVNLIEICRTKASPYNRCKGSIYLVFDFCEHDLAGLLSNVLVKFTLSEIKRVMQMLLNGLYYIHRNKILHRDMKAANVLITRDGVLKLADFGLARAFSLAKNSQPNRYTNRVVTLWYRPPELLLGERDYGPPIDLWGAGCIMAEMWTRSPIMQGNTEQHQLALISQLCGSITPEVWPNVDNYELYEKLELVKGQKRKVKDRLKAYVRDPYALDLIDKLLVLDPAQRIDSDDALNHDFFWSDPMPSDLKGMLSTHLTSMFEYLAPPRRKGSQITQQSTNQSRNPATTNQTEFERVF
# Sequence of CDK9/CycT (O60563 whole entry partner): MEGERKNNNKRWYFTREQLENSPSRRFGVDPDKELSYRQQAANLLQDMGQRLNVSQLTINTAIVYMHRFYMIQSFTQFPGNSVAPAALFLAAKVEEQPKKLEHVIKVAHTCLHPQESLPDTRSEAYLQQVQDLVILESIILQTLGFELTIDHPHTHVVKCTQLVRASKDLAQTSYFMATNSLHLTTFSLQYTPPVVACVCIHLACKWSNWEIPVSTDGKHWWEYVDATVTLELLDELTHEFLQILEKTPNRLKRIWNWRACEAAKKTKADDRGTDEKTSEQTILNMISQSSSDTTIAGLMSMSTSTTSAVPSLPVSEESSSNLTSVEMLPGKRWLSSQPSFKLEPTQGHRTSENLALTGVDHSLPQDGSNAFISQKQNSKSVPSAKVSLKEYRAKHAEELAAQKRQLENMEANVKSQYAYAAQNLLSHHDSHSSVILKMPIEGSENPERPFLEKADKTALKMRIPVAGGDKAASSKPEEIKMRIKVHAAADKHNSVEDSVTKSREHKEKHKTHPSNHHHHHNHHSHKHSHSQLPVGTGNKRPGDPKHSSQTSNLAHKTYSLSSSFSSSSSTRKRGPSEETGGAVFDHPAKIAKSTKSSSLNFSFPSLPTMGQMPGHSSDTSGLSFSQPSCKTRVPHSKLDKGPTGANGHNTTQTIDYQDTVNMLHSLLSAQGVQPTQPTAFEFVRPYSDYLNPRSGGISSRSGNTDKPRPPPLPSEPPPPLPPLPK
# CDK2/CycA = CDK2/CycA (Homo sapiens (Human), UniProt P24941); test: CDK2/CycA kinase inhibition (Biological Table 1)
# CDK5/p35 = CDK5/p35 (Homo sapiens (Human), UniProt Q00535); test: CDK5/p35 kinase inhibition (Biological Table 1)
# Sequence of CDK5/p35 (Q00535 whole entry): as the sequence (Q00535 whole entry) above
# Sequence of CDK5/p35 (Q15078 whole entry partner): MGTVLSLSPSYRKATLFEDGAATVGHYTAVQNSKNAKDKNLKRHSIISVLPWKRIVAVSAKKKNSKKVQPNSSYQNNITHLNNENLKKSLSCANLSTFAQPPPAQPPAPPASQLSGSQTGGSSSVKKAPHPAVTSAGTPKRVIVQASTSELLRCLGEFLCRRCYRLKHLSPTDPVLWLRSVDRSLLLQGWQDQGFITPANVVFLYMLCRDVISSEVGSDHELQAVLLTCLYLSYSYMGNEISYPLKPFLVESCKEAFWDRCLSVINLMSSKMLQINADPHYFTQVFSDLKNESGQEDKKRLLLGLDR
# CDK6/CycD3 = CDK6/CycD3 (Homo sapiens (Human), UniProt Q00534); test: CDK6/CycD3 kinase inhibition (Biological Table 1)
# Sequence of CDK6/CycD3 (Q00534 whole entry): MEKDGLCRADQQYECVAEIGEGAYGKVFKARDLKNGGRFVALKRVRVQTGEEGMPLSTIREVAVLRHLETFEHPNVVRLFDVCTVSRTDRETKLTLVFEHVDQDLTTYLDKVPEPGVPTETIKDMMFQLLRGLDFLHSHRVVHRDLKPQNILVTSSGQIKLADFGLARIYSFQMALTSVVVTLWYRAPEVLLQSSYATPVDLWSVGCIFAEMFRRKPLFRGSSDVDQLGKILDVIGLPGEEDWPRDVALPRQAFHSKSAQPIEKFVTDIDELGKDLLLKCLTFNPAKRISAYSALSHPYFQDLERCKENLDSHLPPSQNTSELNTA
# Sequence of CDK6/CycD3 (P30281 whole entry partner): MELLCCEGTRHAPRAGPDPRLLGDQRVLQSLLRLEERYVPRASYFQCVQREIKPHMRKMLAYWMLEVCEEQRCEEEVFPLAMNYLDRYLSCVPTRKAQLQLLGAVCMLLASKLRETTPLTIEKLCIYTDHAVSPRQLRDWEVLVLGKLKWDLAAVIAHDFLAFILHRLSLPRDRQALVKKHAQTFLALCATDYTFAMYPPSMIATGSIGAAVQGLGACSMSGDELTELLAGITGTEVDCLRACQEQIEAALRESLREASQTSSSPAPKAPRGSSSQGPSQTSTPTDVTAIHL
# CDK4/CyclinD1 = CDK4/CyclinD1 (Homo sapiens (Human), UniProt P11802); test: CDK4/cyclinD1 kinase assay, microfluidic kinase detection (Caliper, Nanosyn); settings: 12-point dose-response, ATP at Km (200 μM), enzyme 1 nM, incubation 10 hr; read-out: CDK4/Cyclin D1
# Sequence of CDK4/CyclinD1 (P11802 whole entry): as the sequence (P11802 whole entry) above
# Sequence of CDK4/CyclinD1 (P24385 whole entry partner): as the sequence (P24385 whole entry partner) above
# Method: (§1) Selected compounds disclosed herein were tested in CDK4/cyclinD1, CDK2/CycA and CDK2/cyclinE kinase assays by Nanosyn (Santa Clara, Calif.) to determine their inhibitory effect on these CDKs. The assays were performed using microfluidic kinase detection technology (Caliper Assay Platform). The compounds were tested in 12-point dose-response format in singlicate at Km for ATP. Phosphoacceptor substrate peptide concentration used was 1 μM for all assays and Staurosporine was used as the reference compound for all assays. Specifics of each assay are as described below:
# CDK4/CyclinD1: Enzyme concentration: 1 nM; ATP concentration: 200 μM; Incubation time: 10 hr.
# CDK2/CyclinE = CDK2/CyclinE (Homo sapiens (Human), UniProt P24941); test: CDK2/cyclinE kinase assay, microfluidic kinase detection (Caliper, Nanosyn); settings: 12-point dose-response, ATP at Km (100 μM), enzyme 0.28 nM, incubation 1 hr; read-out: CDK2/Cyclin E
# Method: as §1
# CDK2/CyclinE: Enzyme concentration: 0.28 nM; ATP concentration: 100 μM; Incubation time: 1 hr.
# CDK9/Cyclin T = CDK9/Cyclin T (Homo sapiens (Human), UniProt P50750); test: CDK9/Cyclin T kinase assay (Biological Table 3)
# Sequence of CDK9/Cyclin T (P50750 whole entry): as the sequence (P50750 whole entry) above
# Sequence of CDK9/Cyclin T (O60563 whole entry partner): as the sequence (O60563 whole entry partner) above
# CDK2/CyclinA = CDK2/CyclinA (Homo sapiens (Human), UniProt P24941); test: CDK2/CycA kinase assay, microfluidic kinase detection (Caliper, Nanosyn); settings: 12-point dose-response, ATP at Km (50 μM), enzyme 0.2 nM, incubation 3 hr; read-out: CDK2/Cyclin A
# Method: as §1
# CDK2/CyclinA: Enzyme concentration: 0.2 nM; ATP concentration: 50 μM; Incubation time: 3 hr.
# CDK6/Cyclin D3 = CDK6/Cyclin D3 (Homo sapiens (Human), UniProt Q00534); test: CDK6/Cyclin D3 kinase assay (Biological Table 3)
# Sequence of CDK6/Cyclin D3 (Q00534 whole entry): as the sequence (Q00534 whole entry) above
# Sequence of CDK6/Cyclin D3 (P30281 whole entry partner): as the sequence (P30281 whole entry partner) above
# Method: [Worded in the source for another target; this target is reported under the same test.] as §1, with “assays.” for “assays. Specifics of each assay are as described below:”
# Sequence of CDK7/CycH/MAT1 (P50613 whole entry): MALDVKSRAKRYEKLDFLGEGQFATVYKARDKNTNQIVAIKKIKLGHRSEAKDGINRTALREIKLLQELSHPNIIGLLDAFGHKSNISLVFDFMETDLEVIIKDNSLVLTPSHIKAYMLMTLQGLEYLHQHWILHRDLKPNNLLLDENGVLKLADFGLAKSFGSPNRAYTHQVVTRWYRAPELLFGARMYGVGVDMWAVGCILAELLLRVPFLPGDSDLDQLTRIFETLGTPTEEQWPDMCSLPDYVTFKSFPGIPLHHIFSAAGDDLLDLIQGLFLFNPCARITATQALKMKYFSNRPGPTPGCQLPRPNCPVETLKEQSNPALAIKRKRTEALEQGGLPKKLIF
# Sequence of CDK7/CycH/MAT1 (P51946 whole entry partner): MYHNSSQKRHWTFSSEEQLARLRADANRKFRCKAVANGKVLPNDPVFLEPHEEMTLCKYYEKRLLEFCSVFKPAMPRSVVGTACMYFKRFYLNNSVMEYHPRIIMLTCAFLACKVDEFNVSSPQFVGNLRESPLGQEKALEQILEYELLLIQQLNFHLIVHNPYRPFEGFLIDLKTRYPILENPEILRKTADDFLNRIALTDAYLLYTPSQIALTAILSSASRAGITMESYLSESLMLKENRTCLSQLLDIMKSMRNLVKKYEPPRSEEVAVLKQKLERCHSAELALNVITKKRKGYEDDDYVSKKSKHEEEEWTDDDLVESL
# Sequence of CDK7/CycH/MAT1 (P51948 whole entry partner): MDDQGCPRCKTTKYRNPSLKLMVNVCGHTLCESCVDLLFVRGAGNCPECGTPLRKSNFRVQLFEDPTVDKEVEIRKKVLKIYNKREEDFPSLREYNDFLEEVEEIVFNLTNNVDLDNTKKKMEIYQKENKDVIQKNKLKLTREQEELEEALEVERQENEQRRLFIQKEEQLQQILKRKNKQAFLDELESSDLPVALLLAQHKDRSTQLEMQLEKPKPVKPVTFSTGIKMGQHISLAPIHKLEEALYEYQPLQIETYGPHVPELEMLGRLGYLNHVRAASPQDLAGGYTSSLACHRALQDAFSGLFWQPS
SMILES,IC50 (CDK4/CyclinD1),IC50 (CDK2/CyclinE),IC50 (CDK9/Cyclin T),IC50 (CDK2/CyclinA),IC50 (CDK6/Cyclin D3),IC50 (CDK7/CycH/MAT1),IC50 (CDK2/CycE),IC50 (CDK5/p25),IC50 (CDK4/CycD),IC50 (CDK9/CycT),IC50 (CDK2/CycA),IC50 (CDK5/p35),IC50 (CDK6/CycD3)
"CN1CCN(c2ccc(Nc3ncc4c(n3)N3C(CC4=O)C(=O)NCC3(C)C)nc2)CC1 (stereo not drawn) [Compound 1, 10,10-dimethyl-2-((5-(4-methylpiperazin-1-yl)pyridin-2-yl)amino)-6,6a,9,10-tetrahydro-5H-pyrazino[1′,2′:1,6]pyrido[2,3-d]pyrimidine-5,7(8H)-dione]",–,–,–,–,–,> 100 µM,> 100 µM,> 100 µM,8.06 µM,> 100 µM,> 100 µM,> 100 µM,30.6 µM
"CN1CCN(c2ccc(Nc3ncc4c(n3)N3C(CC4)C(=O)NCC3(C)C)nc2)CC1 (stereo not drawn) [Compound 2, 10,10-dimethyl-2-((5-(4-methylpiperazin-1-yl)pyridin-2-yl)amino)-6,6a,9,10-tetrahydro-5H-pyrazino[1′,2′:1,6]pyrido[2,3-d]pyrimidin-7(8H)-one]",–,–,–,–,–,–,> 100 µM,> 100 µM,> 100 µM,> 100 µM,> 100 µM,> 100 µM,> 100 µM
CN1CCN(c2ccc(Nc3ncc4c(n3)N3C(CC4=O)C(=O)NCC34CCCCC4)nc2)CC1 (stereo not drawn) [Compound 3],–,–,–,–,–,> 100 µM,> 100 µM,> 100 µM,> 100 µM,> 100 µM,> 100 µM,> 100 µM,> 100 µM
"CN1CCN(c2ccc(Nc3ncc4c(n3)N3C(CC4)C(=O)NCC34CCCCC4)nc2)CC1 (stereo not drawn) [Compound 4, 2′-((5-(4-methylpiperazin-1-yl)pyridin-2-yl)amino)-6′,6a′,8′,9′-tetrahydrospiro[cyclohexane-1,10′-pyrazino[1′,2′:1,6]pyrido[2,3-d]pyrimidin]-7′(5′H)-one]",–,–,–,–,–,> 100 µM,> 100 µM,> 100 µM,47.7 µM,> 100 µM,86.4 µM,> 100 µM,75.9 µM
"CN1CCN(c2ccc(Nc3ncc4c(n3)N3C(CC4=O)C(=O)NCC34CCCC4)nc2)CC1 (stereo not drawn) [Compound 5, 2′-((5-(4-methylpiperazin-1-yl)pyridin-2-yl)amino)-6′,6a′,8′,9′-tetrahydrospiro[cyclopentane-1,10′-pyrazino[1′,2′:1,6]pyrido[2,3-d]pyrimidine]-5′,7′-dione]",–,–,–,–,–,> 100 µM,> 100 µM,> 100 µM,> 100 µM,> 100 µM,> 100 µM,> 100 µM,> 100 µM
"CN1CCN(c2ccc(Nc3ncc4c(n3)N3CCNC(=O)C3CC4=O)nc2)CC1 (stereo not drawn) [Compound 6, 2-((5-(4-methylpiperazin-1-yl)pyridin-2-yl)amino)-6,6a,9,10-tetrahydro-5H-pyrazino[1′,2′:1,6]pyrido[2,3-d]pyrimidine-5,7(8H)-dione]",–,–,–,–,–,> 100 µM,> 100 µM,> 100 µM,14.4 µM,> 100 µM,> 100 µM,> 100 µM,50.4 µM
"CN1CCN(c2ccc(Nc3ncc4cc5n(c4n3)C3(CCCCC3)Cn3ccnc3-5)nc2)CC1 [Compound 25, N-(5-(4-Methylpiperazin-1-yl)pyridin-2-yl)-5′H -spiro[cyclohexane-1,6′-imidazo[2″,1″:3′,4′]pyrazino[1′,2′:1,5]pyrrolo[2,3-d]pyrimidin]-9′-amine]",30 nM,99 µM,6300 nM,59000 nM,100 nM,–,–,–,–,–,–,–,–
"CN1CCN(c2ccc(Nc3ncc4cc5n(c4n3)C3(CCCCC3)C(=O)NC5)nc2)CC1 [Compound 33, 2′-((5-(4-Methylpiperazin-1-yl)pyridin-2-yl)amino)-6′,7′-dihydro-8′H-spiro[cyclohexane-1,9′-pyrazino [1′,2′:1,5]pyrrolo[2,3-d]pyrimidin]-8′-one]",6 nM,4 µM,3000 nM,2000 nM,20 nM,–,–,–,–,–,–,–,–
"CN1CCN(c2ccc(Nc3ncc4cc5n(c4n3)C3(CCOCC3)CNC5=O)nc2)CC1 [Compound 34, 2′-((5-(4-Methylpiperazin-1-yl)pyridin-2-yl)amino)-2,3,5,6,7′,8′-hexahydro-6′H-spiro [pyran-4,9′-pyrazino [1′,2′:1,5]pyrrolo [2,3-d]pyrimidin]-6′-one]",20 nM,23 µM,400 nM,14000 nM,20 nM,–,–,–,–,–,–,–,–
"O=C1NCC2(CCCCC2)n2c1cc1cnc(N[C@H]3CC[C@H](N4CCN(CC5CC5)CC4)CC3)nc12 [Compound 36, 2′-(((1R,4R)-4-(4-(Cyclopropylmethyl)piperazin-1-yl)cyclohexyl)amino)-7′,8′-dihydro-6′H-spiro [cyclohexane-1,9′-pyrazino[1′,2′:1,5]pyrrolo[2,3-d]pyrimidin]-6′-one]",4 nM,0.3 µM,2 nM,100 nM,30 nM,–,–,–,–,–,–,–,–
"CN1CCN([C@H]2CC[C@H](Nc3ncc4cc5n(c4n3)C3(CCCCC3)CNC5=O)CC2)CC1 [Compound 37, 2′-(((1R,4R)-4-(4-Methylpiperazin-1-yl)cyclohexyl)amino)-7′,8′-dihydro-6′H-spiro[cyclohexane-1,9′-pyrazino[1′,2′:1,5]pyrrolo[2,3-d]pyrimidin]-6′-one]",6 nM,0.4 µM,3 nM,20 nM,40 nM,–,–,–,–,–,–,–,–
"O=C1NCC2(CCCCC2)n2c1cc1cnc(N[C@H]3CC[C@@H](N4CCN(CC5CC5)CC4)CC3)nc12 [Compound 40, 2′-(((1S,4S)-4-(4-(Cyclopropylmethyl)piperazin-1-yl)cyclohexyl)amino)-7′,8′-dihydro-6′H-spiro [cyclohexane-1,9′-pyrazino[1′,2′:1,5]pyrrolo[2,3-d]pyrimidin]-6′-one]",90 nM,5 µM,50 nM,2000 nM,500 nM,–,–,–,–,–,–,–,–

# The next lines start with results.
IC50 (CDK4/CyclinD1),IC50 (CDK2/CyclinE),IC50 (CDK9/Cyclin T),IC50 (CDK2/CyclinA),IC50 (CDK6/Cyclin D3),SMILES,IC50 (CDK7/CycH/MAT1),IC50 (CDK2/CycE),IC50 (CDK5/p25),IC50 (CDK4/CycD),IC50 (CDK9/CycT),IC50 (CDK2/CycA),IC50 (CDK5/p35),IC50 (CDK6/CycD3)
9400 nM,> 100 µM,> 100000 nM,> 100000 nM,21000 nM,"CN1CCN(c2ccc(Nc3ncc4c(n3)N3C(=NCC35CCCCC5)C(=O)N4)nc2)CC1 [Compound 27, 2′-((5-(4-Methylpiperazin-1-yl)pyridin-2-yl)amino)-5′H-spiro[cyclohexane-1,9′-imidazo[2,1-h]pteridin]-6′(8′H)-one]",–,–,–,–,–,–,–,–
0.6 nM,0.04 µM,40 nM,100 nM,1 nM,"CN1CCN(c2ccc(Nc3ncc4cc5n(c4n3)C3(C=NC5)CCCCC3)nc2)CC1 [Compound 31, N-(5-(4-Methylpiperazin-1-yl)pyridin-2-yl)-6′H-spiro[cyclohexane-1,9′-pyrazino[1′,2′:1,5]pyrrolo[2,3-d]pyrimidin]-2′-amine]",–,–,–,–,–,–,–,–
7 nM,14 µM,200 nM,5000 nM,10 nM,"CO[C@H]1CC[C@@]2(CC1)CNC(=O)c1cc3cnc(Nc4ccc(N5CCN(C)CC5)cn4)nc3n12 [Compound 38, (1S,4S)-4-Methoxy-2′-((5-(4-methylpiperazin-1-yl)pyridin-2-yl)amino)-7′,8′-dihydro-6′H-spiro[cyclohexane-1,9′-pyrazino[1′,2′:1,5]pyrrolo [2,3-d]pyrimidin]-6′-one]",–,–,–,–,–,–,–,–
60 nM,33 µM,200 nM,19000 nM,90 nM,"CO[C@H]1CC[C@]2(CC1)CNC(=O)c1cc3cnc(Nc4ccc(N5CCN(C)CC5)cn4)nc3n12 [Compound 39, (1R,4R)-4-Methoxy-2′-((5-(4-methylpiperazin-1-yl)pyridin-2-yl)amino)-7′,8′-dihydro-6′H-spiro [cyclohexane-1,9′-pyrazino[1′,2′:1,5]pyrrolo [2,3-d]pyrimidin]-6′-one]",–,–,–,–,–,–,–,–
140 nM,6 µM,70 nM,2000 nM,800 nM,"CN1CCN([C@H]2CC[C@@H](Nc3ncc4cc5n(c4n3)C3(CCCCC3)CNC5=O)CC2)CC1 [Compound 41, 2′-(((1S,4S)-4-(4-Methylpiperazin-1-yl)cyclohexyl)amino)-7′,8′-dihydro-6′H-spiro[cyclohexane-1,9′-pyrazino[1′,2′:1,5]pyrrolo[2,3-d]pyrimidin]-6′-one]",–,–,–,–,–,–,–,–
